In US20230141101A1, “PDE4 INHIBITOR COMPOUND AND MEDICAL USE THEREOF” (Suzhou Longbotai Pharmaceuticals Co., Ltd., priority 2020, published 2023):

How the values were obtained:
Type in all cases: biochemical
Details in all cases: 20 nM
[1] = biological target: T1, PDE4A1A (Homo sapiens, UniProt P27815); test: PDE4 inhibitory activity assay (FAM-cAMP enzymatic reaction), PDE4A1A
T1 construct: purchased BPS 60040
Method: (§1) The compounds of the present disclosure were tested for their inhibitory activity (IC50 value) against PDE4A1A, PDE4B1, and PDE4D2.
(§2) Positive compound: Trequinsin (Sigma, Cat No. T20S7).
(§3) Instrument: Wallac Victor Muti-lable counter (Pekin Elmer) Steps of assay:
(§4) PDE enzymatic reaction; • 1) PDE was dissolved in 1× reaction solution to prepare 2× enzyme solution; • 2) FAM-cAMP was dissolved in 1× reaction solution to prepare 2× substrate solution; • 3) Corresponding volume of the compound in DMSO was transferred to the reaction plate through Echo 550; • 4) 2× enzyme solution was added into the corresponding wells of the reaction plate and incubated with the compound solution for 15 minutes at room temperature; • 5) 2× substrate solution was added into the corresponding well of the reaction plate to initiate the reaction; • 6) After the reaction plate was incubated at room temperature for 30 min, the reaction was terminated by adding reaction stopping solution. The reaction plate was incubated at room temperature for another 60 minutes;
(§5) Inhibition rates were calculated with Excel; and IC50 for each compound was calculated with Graphpad prism.

[2] = biological target: T2, PDE4B1 (Homo sapiens, UniProt Q07343); test: PDE4 inhibitory activity assay (FAM-cAMP enzymatic reaction), PDE4B1
T2 construct: purchased BPS 60041
T2 sequence (Q07343 whole entry): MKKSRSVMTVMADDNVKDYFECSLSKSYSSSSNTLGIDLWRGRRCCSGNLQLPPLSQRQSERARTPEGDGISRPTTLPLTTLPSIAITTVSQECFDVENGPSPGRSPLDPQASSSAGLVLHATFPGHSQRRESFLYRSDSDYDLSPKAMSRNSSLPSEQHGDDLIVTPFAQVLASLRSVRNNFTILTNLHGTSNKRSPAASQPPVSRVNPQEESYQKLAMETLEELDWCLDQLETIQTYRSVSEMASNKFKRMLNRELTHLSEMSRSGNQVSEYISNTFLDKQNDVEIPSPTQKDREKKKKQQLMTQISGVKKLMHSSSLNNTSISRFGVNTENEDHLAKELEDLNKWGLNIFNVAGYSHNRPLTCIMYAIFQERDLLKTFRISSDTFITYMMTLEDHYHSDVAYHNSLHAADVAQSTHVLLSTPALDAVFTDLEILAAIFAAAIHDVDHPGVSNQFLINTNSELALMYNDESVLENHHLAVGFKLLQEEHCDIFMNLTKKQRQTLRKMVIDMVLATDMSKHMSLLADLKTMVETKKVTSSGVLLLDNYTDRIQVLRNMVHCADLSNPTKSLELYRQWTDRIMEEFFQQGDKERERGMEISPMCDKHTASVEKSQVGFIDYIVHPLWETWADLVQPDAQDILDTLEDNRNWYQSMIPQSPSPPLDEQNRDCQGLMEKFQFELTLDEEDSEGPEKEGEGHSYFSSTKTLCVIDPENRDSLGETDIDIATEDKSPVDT
Method: as §1, §2, §3, §4, §5

[3] = biological target: PDE4D2 (Homo sapiens, UniProt Q08499); test: PDE4 inhibitory activity assay (FAM-cAMP enzymatic reaction), PDE4D2
Chain of PDE4D2 (Q08499 303-809): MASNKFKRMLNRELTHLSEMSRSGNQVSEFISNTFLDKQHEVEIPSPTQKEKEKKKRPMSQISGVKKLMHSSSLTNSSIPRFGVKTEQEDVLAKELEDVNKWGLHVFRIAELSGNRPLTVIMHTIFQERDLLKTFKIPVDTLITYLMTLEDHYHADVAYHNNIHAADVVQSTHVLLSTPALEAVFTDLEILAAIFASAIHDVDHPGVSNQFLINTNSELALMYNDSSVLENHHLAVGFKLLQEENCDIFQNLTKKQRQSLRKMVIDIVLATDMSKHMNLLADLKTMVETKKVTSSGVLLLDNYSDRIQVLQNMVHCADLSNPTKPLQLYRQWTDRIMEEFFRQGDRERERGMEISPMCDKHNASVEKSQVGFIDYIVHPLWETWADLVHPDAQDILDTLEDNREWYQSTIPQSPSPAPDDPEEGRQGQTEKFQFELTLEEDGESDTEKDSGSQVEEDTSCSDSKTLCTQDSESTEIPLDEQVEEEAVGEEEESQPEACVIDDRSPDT
Method: as §1, §2, §3, §4, §5

T1 sequence (P27815 1-647 isoform P27815-4): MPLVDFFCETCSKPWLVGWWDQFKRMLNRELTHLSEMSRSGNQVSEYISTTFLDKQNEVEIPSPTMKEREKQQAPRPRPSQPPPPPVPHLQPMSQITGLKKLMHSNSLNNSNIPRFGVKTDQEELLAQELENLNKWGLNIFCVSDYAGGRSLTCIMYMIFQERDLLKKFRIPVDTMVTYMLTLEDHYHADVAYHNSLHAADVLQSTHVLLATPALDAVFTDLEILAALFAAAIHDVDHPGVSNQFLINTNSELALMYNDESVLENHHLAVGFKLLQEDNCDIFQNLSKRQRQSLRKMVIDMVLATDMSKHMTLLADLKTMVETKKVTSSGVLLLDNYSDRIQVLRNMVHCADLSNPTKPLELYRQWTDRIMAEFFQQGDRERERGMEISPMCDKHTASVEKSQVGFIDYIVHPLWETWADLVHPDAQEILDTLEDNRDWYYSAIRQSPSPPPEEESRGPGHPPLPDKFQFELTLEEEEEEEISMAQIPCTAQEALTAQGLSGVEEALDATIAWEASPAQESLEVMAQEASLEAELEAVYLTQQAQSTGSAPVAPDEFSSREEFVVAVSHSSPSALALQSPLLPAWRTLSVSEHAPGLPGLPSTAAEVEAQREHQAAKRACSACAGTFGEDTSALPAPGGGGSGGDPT

Structure (SMILES) | PDE4 A1 inhibitory effect at 20 nM [1] | PDE4 B1 inhibitory effect at 20 nM [2] | PDE4 D2 inhibitory effect at 20 nM [3]
CCOc1nc([C@@H](CS(C)(=O)=O)n2c(=O)[nH]c3c(C)c(-c4ccc(C)cc4F)cnc32)ccc1OC [Ex. 40, (S)-6-(2-fluoro-4-methylphenyl)-3-(1-(6-ethoxy-5-methoxypyridin-2-yl)-2-(methylsulfonyl)ethyl)-7-methyl-1H-imidazo[4,5-b]pyridin-2(3H)-one] | + | + | +
CCOc1nc([C@@H](CS(C)(=O)=O)n2c(=O)[nH]c3c(C)c(-c4cc(OC)ccc4F)cnc32)ccc1OC [Ex. 41, (S)-6-(2-fluoro-5-methoxyphenyl)-3-(1-(6-ethoxy-5-methoxypyridin-2-yl)-2-(methylsulfonyl)ethyl)-7-methyl-1H-imidazo[4,5-b]pyridin-2(3H)-one] | + | + | +
CCOc1nc([C@@H](CS(C)(=O)=O)n2c(=O)[nH]c3c(C)c(-c4cccc(OC)c4F)cnc32)ccc1OC [Ex. 42, (S)-6-(2-fluoro-3-methoxyphenyl)-3-(1-(6-ethoxy-5-methoxypyridin-2-yl)-2-(methylsulfonyl)ethyl)-7-methyl-1H-imidazo[4,5-b]pyridin-2(3H)-one] | + | + | +
CCOc1nc([C@@H](CS(C)(=O)=O)n2c(=O)[nH]c3c(C)c(-c4ccc(OC)cc4F)cnc32)ccc1OC [Ex. 43, (S)-6-(2-fluoro-4-methoxyphenyl)-3-(1-(6-ethoxy-5-methoxypyridin-2-yl)-2-(methylsulfonyl)ethyl)-7-methyl-1H-imidazo[4,5-b]pyridin-2(3H)-one] | + | + | +
CCOc1nc([C@@H](CS(C)(=O)=O)n2c(=O)[nH]c3c(C)c(-c4cc(F)ccc4OC)cnc32)ccc1OC [Ex. 44, (S)-6-(5-fluoro-2-methoxyphenyl)-3-(1-(6-ethoxy-5-methoxypyridin-2-yl)-2-(methylsulfonyl)ethyl)-7-methyl-1H-imidazo[4,5-b]pyridin-2(3H)-one] | + | + | +
CCOc1nc([C@@H](CS(C)(=O)=O)n2c(=O)[nH]c3c(C)c(-c4ccc(F)cc4OC)cnc32)ccc1OC [Ex. 45, (S)-6-(4-fluoro-2-methoxyphenyl)-3-(1-(6-ethoxy-5-methoxypyridin-2-yl)-2-(methylsulfonyl)ethyl)-7-methyl-1H-imidazo[4,5-b]pyridin-2(3H)-one] | + | + | +
CCOc1nc([C@@H](CS(C)(=O)=O)n2c(=O)[nH]c3c(C)c(-c4c(F)cccc4OC)cnc32)ccc1OC [Ex. 46, (S)-6-(6-fluoro-2-methoxyphenyl)-3-(1-(6-ethoxy-5-methoxypyridin-2-yl)-2-(methylsulfonyl)ethyl)-7-methyl-1H-imidazo[4,5-b]pyridin-2(3H)-one] | + | + | +
CCOc1nc([C@H](CS(C)(=O)=O)n2c(=O)n(CC)c3c(C)c(-c4ccccc4)cnc32)ccc1OC [Ex. 47, (R)-3-(1-(6-ethoxy-5-methoxypyridin-2-yl)-2-(methylsulfonyl)ethyl)-1-ethyl-7-methyl-6-phenyl-1H-imidazo[4,5-b]pyridin-2(3H)-one] | − | − | −
CCOc1nc([C@@H](CS(C)(=O)=O)n2c(=O)n(CC)c3c(C)c(-c4ccc(F)cc4)cnc32)ccc1OC [Ex. 48, (S)-3-(1-(6-ethoxy-5-methoxypyridin-2-yl)-2-(methylsulfonyl)ethyl)-1-ethyl-6-(4-fluorophenyl)-7-methyl-1H-imidazo[4,5-b]pyridin-2(3H)-one] | + | + | +
CCOc1nc([C@H](CS(C)(=O)=O)n2c(=O)n(CC)c3c(C)c(-c4ccc(F)cc4)cnc32)ccc1OC [Ex. 49, (R)-3-(1-(6-ethoxy-5-methoxypyridin-2-yl)-2-(methylsulfonyl)ethyl)-1-ethyl-6-(4-fluorophenyl)-7-methyl-1H-imidazo[4,5-b]pyridin-2(3H)-one] | − | − | −
CCOc1nc([C@@H](CS(C)(=O)=O)n2c(=O)n(CC)c3c(C)c(-c4ccccc4C)cnc32)ccc1OC [Ex. 50, (S)-3-(1-(6-ethoxy-5-methoxypyridin-2-yl)-2-(methylsulfonyl)ethyl)-1-ethyl-7-methyl-6-(o-methylphenyl)-1H-imidazo[4,5-b]pyridin-2(3H)-one] | + | + | +
CCOc1nc([C@@H](CS(C)(=O)=O)n2c(=O)n(CC(F)(F)F)c3c(C)c(-c4ccccc4F)cnc32)ccc1OC [Ex. 51, (S)-3-(1-(6-ethoxy-5-methoxypyridin-2-yl)-2-(methylsulfonyl)ethyl)-6-(2-fluorophenyl)-7-methyl-1-(2,2,2-trifluoroethyl)-1H-imidazo[4,5-b]pyridin-2(3H)-one] | + | + | +
CCOc1nc([C@H](CS(C)(=O)=O)n2c(=O)n(CC(F)(F)F)c3c(C)c(-c4ccccc4F)cnc32)ccc1OC [Ex. 52, (R)-3-(1-(6-ethoxy-5-methoxypyridin-2-yl)-2-(methylsulfonyl)ethyl)-6-(2-fluorophenyl)-7-methyl-1-(2,2,2-trifluoroethyl)-1H-imidazo[4,5-b]pyridin-2(3H)-one] | − | − | −
CCOc1nc([C@@H](CS(C)(=O)=O)n2c(=O)n(CC(F)(F)F)c3c(C)c(-c4ccccc4)cnc32)ccc1OC [Ex. 53, (S)-3-(1-(6-ethoxy-5-methoxypyridin-2-yl)-2-(methylsulfonyl)ethyl)-7-methyl-6-phenyl-1-(2,2,2-trifluoroethyl)-1H-imidazo[4,5-b]pyridin-2(3H)-one] | + | + | +
CCOc1nc([C@H](CS(C)(=O)=O)n2c(=O)n(CC(F)(F)F)c3c(C)c(-c4ccccc4)cnc32)ccc1OC [Ex. 54, (R)-3-(1-(6-ethoxy-5-methoxypyridin-2-yl)-2-(methylsulfonyl)ethyl)-7-methyl-6-phenyl-1-(2,2,2-trifluoroethyl)-1H-imidazo[4,5-b]pyridin-2(3H)-one] | − | − | −
CCOc1nc([C@@H](CS(C)(=O)=O)n2c(=O)n(CC(F)(F)F)c3c(C)c(-c4ccccc4C)cnc32)ccc1OC [Ex. 55, (S)-3-(1-(6-ethoxy-5-methoxypyridin-2-yl)-2-(methylsulfonyl)ethyl)-7-methyl-6-(o-methylphenyl)-1-(2,2,2-trifluoroethyl)-1H-imidazo[4,5-b]pyridin-2(3H)-one] | + | + | +
CCOc1nc([C@@H](CS(C)(=O)=O)n2c(=O)n(CC(F)F)c3c(C)c(-c4ccccc4F)cnc32)ccc1OC [Ex. 56, (S)-1-(2,2-difluoroethyl)-3-(1-(6-ethoxy-5-methoxypyridin-2-yl)-2-(methylsulfonyl)ethyl)-6-(2-fluorophenyl)-7-methyl-1H-imidazo[4,5-b]pyridin-2(3H)-one] | + | + | +
CCOc1nc([C@@H](CS(C)(=O)=O)n2c(=O)n(CC(F)F)c3c(C)c(-c4ccccc4)cnc32)ccc1OC [Ex. 57, (S)-1-(2,2-difluoroethyl)-3-(1-(6-ethoxy-5-methoxypyridin-2-yl)-2-(methylsulfonyl)ethyl)-7-methyl-6-phenyl-1H-imidazo[4,5-b]pyridin-2(3H)-one] | + | + | +
CCOc1nc([C@@H](CS(C)(=O)=O)n2c(=O)n(CC(F)F)c3c(C)c(-c4ccc(F)cc4)cnc32)ccc1OC [Ex. 58, (S)-1-(2,2-difluoroethyl)-3-(1-(6-ethoxy-5-methoxypyridin-2-yl)-2-(methylsulfonyl)ethyl)-6-(4-fluorophenyl)-7-methyl-1H-imidazo[4,5-b]pyridin-2(3H)-one] | + | + | +
